Assay: gradient 5% acetonitrile 3 min, to 50% in 2 min, to 85% in 15 min, held 3 min, 100 µL/min
Conditions: column: Zorbax Extend-C18 2.1 x 50 mm; eluents: water / acetonitrile, 0.1% formic acid
Method in brief: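 A Zorbax Extend-C18 column (2.1 × 50 mm, 1.8 μm) run at 100 μL/min with water and acetonitrile, both containing 0.1% formic acid, separated mixtures of ~100 pure standards. The HPLC was coupled to a quadrupole time-of-flight mass spectrometer operated in positive and negative ionization mode, with dead and dwell volumes of 40 μL and 900 μL. Each retention time was taken from a computationally picked adduct peak that was then manually inspected.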

SMILES | RP-LC retention time [s]
CCCN1C(=O)COc2ccc(-c3noc(-c4ccc(NC(C)=O)cc4)n3)cc21 | 948
Cc1cccc(CC(=O)N2C[C@@H]3C[C@H](NS(C)(=O)=O)[C@H]2C3)c1 | 662
CCc1csc(-c2ccc(N3CCN(C(=O)c4ccsc4)CC3)nc2)n1 | 853
O=C(Nc1ccc(C(F)(F)F)cc1)NC1CCN(c2ccc(F)cc2)C1=O (stereo not drawn) | 920
Cc1cc(C)cc(NC(=O)C2CCCN(S(=O)(=O)c3cc(-c4noc(C)n4)cs3)C2)c1 (stereo not drawn) | 1060
O=C(c1ccccc1Cl)N1CCN=C1N1CCCCC1 | 638
O=C(Cn1ccn2nc(-c3ccccc3)c(CO)c2c1=O)Nc1cccc(Br)c1 | 868
COC(=O)Cn1c(-c2ccc(C)cc2)cnc1SCC(=O)Nc1nnc(C)s1 | 680
NC(=O)c1cccc2ncc(-c3ccc(Cl)cc3)nc12 | 831
CCn1nccc1C(=O)NC1CCN(c2cc(-c3ccccc3)[nH]n2)CC1 | 688
Cc1noc([C@@H]2CN(S(=O)(=O)c3ccc(Cl)s3)C[C@H]2C(N)=O)n1 | 732
CS(=O)(=O)Nc1cccc(NC(=O)c2ccc(N3CCOCC3)nn2)c1 | 633
CCCc1cc(N2CCN(C(=O)c3ccccc3)CC2)nc2nncn12 | 608
COc1ccccc1-c1noc(Cn2cnc3c(cnn3-c3ccc(C)cc3)c2=O)n1 | 1100
CCOC(=O)c1ccc(NC(=O)Cn2c(C)nc3c(sc4nc(-c5ccccc5)ccc43)c2=O)cc1 | 1100
O=C1Nc2cc(C(=O)N3CCN(c4cccc(Cl)c4)CC3)ccc2N2CCCCC12 (stereo not drawn) | 975
COc1cccc(-c2ccc(=O)n(Cc3nc(-c4ccccc4Cl)no3)n2)c1 | 931
O=C(NCc1ccc(F)cc1F)c1cnn2c(-c3ccc4c(c3)OCO4)ccnc12 | 1000
Cc1cccc(CN2CCCn3nc(C(=O)NCc4ccco4)cc3C2=O)c1 | 810
COc1ccccc1C(=O)N1CCN(c2cnn3c(C)nnc3c2)CC1 | 601
COc1cc(NC(=O)c2noc3c2CCCC3)cc(OC)c1OC | 876

SMILES | RP-LC retention time [s]
COc1cccc2cc(C(=O)N(CCc3cccs3)Cc3cccnc3)oc12 | 671
CCn1cc(-c2ccc(C)cc2)cc1C(=O)NC(C)c1cccnc1 (stereo not drawn) | 736
O=C(NCCCc1ccccc1)C1CCN(C(=O)c2ncn3c2COC(c2ccc(F)cc2)C3)CC1 (stereo not drawn) | 818
Fc1ccccc1-c1noc(NCC2CCCO2)n1 (stereo not drawn) | 748
O=C(NCc1ccc(Cl)cc1)C1CCCN(S(=O)(=O)c2c[nH]c(C(=O)N3CCCC3)c2)C1 (stereo not drawn) | 800
O=C(Nc1ccc(F)cc1)OCCOc1ccc([N+](=O)[O-])cc1 | 1030
COc1ccc(CNC(=O)c2sc(-c3cn(C)c4ncccc34)nc2C)cc1 | 958
COc1ccc(CCC(=O)N2CCC3(CC2)C(=O)N(C)c2ccccc23)cc1 | 867
CC1Oc2ccc(-c3csc(NC(=O)C(C)(C)C)n3)cc2NC1=O (stereo not drawn) | 856
COc1ccc(-n2ccn3cc(-c4ccc(F)cc4F)nc3c2=O)cc1Cl | 929
O=C(NCCc1ccco1)c1cc2n(n1)CCCN(Cc1cccc(F)c1)C2=O | 751
Cc1c(S(=O)(=O)NC2CC2)c(C)n(C)c1-c1nnc(C2CCC2)o1 | 787
Cc1ccc(-c2nc3nc(C)cc(C)n3c2Nc2ccc(Cl)cc2)cc1 | 786
O=C(Nc1cccc(Cl)c1)C1CCCN1S(=O)(=O)c1cccc2nsnc12 (stereo not drawn) | 949
COc1ccc(-c2nnc(-c3ccccc3Cl)o2)cc1S(=O)(=O)N1CCCCCC1 | 1100
O=C(CSc1ccc(-n2ccnc2)nn1)Nc1ccc(OC(F)(F)F)cc1 | 618
COc1ccc(-n2c(=O)n(C)c(=O)c3cc(C(=O)Nc4ccc(C)cc4)cnc32)cc1 | 918
O=C(NCc1cccnc1)C1CCN(c2nnc3ccc(C(F)(F)F)cn23)CC1 | 536
Cc1ccc(-c2cc3c(=O)n(Cc4nc(-c5ccc(F)cc5)no4)ncn3n2)c(C)c1 | 1220
O=S(=O)(NCc1cccs1)c1cc(-c2noc(C3CCCC3)n2)cs1 | 1110

Other lines, results leading:

RP-LC retention time [s] | SMILES
983 | Nc1ccccc1Sc1cc(Cl)nnc1Cl
739 | O=C(c1nnc(-c2ccc(S(=O)(=O)N3CCCC3)cc2)o1)N1CCOCC1
932 | CN(c1ccc(F)cc1)S(=O)(=O)N1CCCC(C(=O)NCCc2c[nH]c3ccccc23)C1 (stereo not drawn)
748 | Cc1cc2c(=O)n(CC(=O)Nc3ccc(F)c(C)c3)c3cccnc3n2n1
694 | O=C(NCc1ccccc1)C1CCN(S(=O)(=O)c2cc(C(=O)N3CCOCC3)cs2)CC1
777 | CC(C)Cc1ccc(S(=O)(=O)N2CCC3(CC2)c2nccn2CCN3C)cc1
610 | Oc1ccccc1CN1CCN(c2cc(-c3ccccc3)[nH]n2)CC1
608 | CC(C)n1cnnc1CC1CN(C(=O)Nc2ccccc2F)C1
916 | Cc1ccccc1CNC(=O)CN1C(=O)CCCc2cc(S(=O)(=O)N3CCCC3)ccc21
788 | CCN(CC)S(=O)(=O)c1ccc2c(c1)N(CC(=O)NCCOC)C(=O)C1CCCCN21 (stereo not drawn)
773 | Cc1ccccc1S(=O)(=O)N1CCC(n2cnnc2-c2ccccc2)CC1
735 | O=C1CCCc2nc(N3CCN(c4ccccn4)CC3)nc(Nc3ccccc3)c21
715 | CCCNC(=O)C1CCCN(c2nc3ncn(CC(=O)Nc4ccc(C)c(C)c4)c(=O)c3s2)C1 (stereo not drawn)
605 | O=C(NCCN1CCOCC1)C1CN(C(=O)c2ccccc2)CC12CCCCC2 (stereo not drawn)
937 | O=C(Nc1ncc(Cc2ccc(F)cc2)s1)c1ccc([N+](=O)[O-])cc1
687 | N#CCSc1nnc2n(CCC(=O)NC3CCCCC3)c(=O)c3ccccc3n12
612 | COc1cc(NC(=O)N2CCC(CN3CCc4ccccc4C3)CC2)cc(OC)c1OC
1000 | COc1ccc(-c2nc(C3CC(=O)N(c4ccc(F)c(Cl)c4)C3)no2)c(OC)c1 (stereo not drawn)
597 | O=C(NCC(F)(F)F)c1cnccn1
767 | O=C(Nc1nc2c(F)cc(F)cc2s1)C1CCCN(S(=O)(=O)c2cccs2)C1 (stereo not drawn)
1100 | CC1=NS(=O)(=O)N(C)C=C1C(=O)OCc1nc(-c2ccc(OC(F)(F)F)cc2)no1
849 | CCn1nccc1C(=O)N1CCCC1c1ccccc1Cl (stereo not drawn)
821 | COC(=O)c1ccc(C(=O)Nc2cccc3c(OC)cccc23)cc1
567 | Cc1nnc(CNC(=O)c2cccc(-n3cnnn3)c2)o1

RP-LC retention time [s] | SMILES
655 | Cc1cc(-c2nnc(NC(=O)c3ccc4c(c3)OCCO4)o2)n(C)n1
974 | O=C(CN1C(=O)CCCc2cc(S(=O)(=O)N3CCCCCC3)ccc21)N1CCc2ccccc2C1
706 | N#Cc1cccc(S(=O)(=O)NC2CCc3nn(CC4CC4)c(=O)n3CC2)c1 (stereo not drawn)
917 | COc1ccc(OCc2noc(CNC(=O)Nc3ccc(Cl)c(Cl)c3)n2)cc1
839 | COc1cccc(CNC(=O)C2(C)CCCN(C(=O)Nc3ccccc3)C2)c1 (stereo not drawn)
830 | CCOc1cc(-c2cccc(Cl)c2)nc2ccc(NC(=O)c3ccco3)cc12
658 | CCOC(=O)c1ccc(NC(=O)Cn2cnc3nc(N4CCCC(C(=O)NC)C4)sc3c2=O)cc1 (stereo not drawn)
880 | Cc1ccc2nc(-c3cccc(F)c3)cc(C(N)=O)c2c1
700 | CCOC(=O)C(=O)NCC1CCCN1S(=O)(=O)c1ccc(OC)cc1 (stereo not drawn)
728 | COC(=O)c1ccc2c(=O)n(-c3ccc(C)cc3)c(N3CCN(c4ccccn4)CC3)nc2c1
629 | O=C1CN(C(=O)CCC[C@@H]2[C@H]3CCCN4CCC[C@@H](CN2C(=O)c2cccnc2)[C@@H]34)CCN1
809 | CCOC(=O)c1ccc(NC(=O)N2CCCC2c2cc(C)on2)cc1 (stereo not drawn)
578 | O=C(NCCN1CCOCC1)c1nnc(-c2ccc(S(=O)(=O)N3CCOCC3)cc2)o1
767 | O=C(Cn1c(=O)c2cccn2c2ccc(F)cc21)NCc1ccco1
747 | Clc1nnc2c3ccccc3ccn12
674 | O=C(CN1C(=O)CCC1=O)NC1CCCC(OC(=O)Nc2ccc(F)cc2)C1 (stereo not drawn)
1030 | CC(=O)c1cccc(NC(=O)Cn2cccc2-c2nc(-c3ccccc3)cs2)c1
923 | Cn1c(C(=O)Nc2ccc(F)cc2F)cc2c(=O)oc3ccccc3c21
743 | COc1ccc(C(=O)N2C[C@H](c3nc(-c4ccncc4)no3)[C@@H](C)C2)c(OC)c1
1120 | O=C(Cn1nc(N2CCCCCC2)c2ccccc2c1=O)NC1CCc2ccccc21 (stereo not drawn)
1000 | O=S(=O)(c1cc(F)ccc1F)N1CCC(c2noc(COCC3CC3)n2)CC1
881 | Cc1cc(NC(=O)c2cccn2-c2cccnc2)ccc1Br
865 | CC(C)CC(=O)Nc1ccc(-n2cnc(C(=O)NC3CCCCCC3)c2)nc1

From the METLIN SMRT retention time set (Domingo-Almenara et al. 2019)
